Among the data in ChEMBL document CHEMBL1123148, “Improved synthesis of 2'-deoxyformycin A and studies of its in vitro activity against mouse lymphoma of T-cell origin” (J Med Chem, 1985) are IC50 values, retold here.

Usually IC50 stands for the concentration that gives 50% inhibition.

Assay [1] in a line: Compound along with 10 uM of erythro-9-(2-hydroxy-3-nonyl)adenine (EHNA) was tested against mouse lymphoma T-cells. In kind it is functional.
Assay [2] can be described thus: Compound evaluated for the inhibitory concentration of S49 Mouse Lymphoma T-cells. In kind it is functional, cell-based.

With `Nc1ncnc2c([C@H]3C[C@H](O)[C@@H](CO)O3)n[nH]c12`, the IC50 in assay [1] worked out at 9.3 µM; in assay [2], 13.5 µM.
For `Nc1ncnc2c([C@@H]3O[C@H](CO)[C@@H](O)[C@H]3O)[nH]nc12` [FORMYCIN], in that order: 0.03 µM and 2.3 µM.
For `Nc1ncnc2c1ncn2[C@H]1C[C@H](O)[C@@H](CO)O1` [DEOXYADENOSINE], in that order: 4.5 µM and 180 µM.
